According to publication PMC4575187 (PLoS ONE, 2015):
≈ marks a conversion by molar mass, not a printed value. Ends that are not written are not given here.

Assays:
MDCK cells [1] = conditions: 4 h
[2] = system: influenza A/Aichi/2/68 (H3N2); conditions: /Aichi/2/68, 48 h
[3] = system: H5N1 pseudovirus (HA and NA of A/Thailand/Kan353/2004)
H5N1 pseudovirus = type: cell-based, influenza A virus
MDCK cells [4] = conditions: previous work; cited from earlier work
H5 antigen = assay: Hemagglutination inhibition (HI) assay; conditions: HA-FP-1 at 50 μg/mL, chicken erythrocytes 0.5% v/v, 1 h at room temperature
[5] = system: influenza A/Aichi/2/68 (H3N2); assay: microbe, parasite or virus in culture; conditions: H3N2, MDCK, read-out: H3N2 IC50

Molecule | CC50 with serum (MDCK cells [1]) [µg/mL] | CC50 without serum (MDCK cells [1]) [µg/mL] | H3N2 IC50 [2] [µg/mL] | other results
GLFGAIAGFIKKGWPGLVKG-NH2 [HA-FP-3-1] | 209.35 ± 0.21 | 174.53 ± 1.90 | 27.57 ± 0.43 | –
HA-FP-O: indigenous negatively charged fusion peptide of H3 hemagglutinin HA2, 20 residues (GLFGAIAGFIENGWEGMIDG) | – | – | – | inhibition of H5N1 pseudovirus infection (in words) [3]: a lower or no inhibition
GLFGAIAGFIKGGWPGLVKG-NH2 [HA-FP-3] | – | – | 34.91 ± 4.21 | –
GLFGAIAGFIKNGWKGMIKG-NH2 [HA-FP-1] | 143.65 ± 0.63 | 111.70 ± 0.40 | 5.90 ± 0.62 | antiviral activity of HA-FP-1 in presence of HA-FP-O (H5N1 pseudovirus): completely abolished; IC50, infection of H5N1 influenza A pseudovirus on MDCK cells ([3]; pseudovirus (HA and NA of A/Thailand/Kan353/2004, 48 h)): 7.05 µg/mL; CC50 against MDCK (MDCK cells [4]): 144.4 µg/mL; inhibition of agglutination of red blood cells (H5 antigen): unable to inhibit
NC(=O)c1ncn([C@@H]2O[C@H](CO)[C@@H](O)[C@H]2O)n1 [Ribavirin] | – | – | – | IC50 [5]: 0.63 µg/mL (≈ 2.58 µM)
